How the values were obtained:
Format in all cases: in vivo
Lolium multiflorum = assay: Pre-emergence herbicidal action, LOLMU; conditions: dosage 320 g/ha, scored visually after 3 weeks vs untreated controls (100% = plants have died)
Source text: 1. Pre-Emergence Herbicidal Action Against Harmful Plants Seeds of monocotyledonous and dicotyledonous weed plants and crop plants are laid out in sandy loam soil in wood-fiber pots and covered with soil. The compounds of the invention, formulated in the form of wettable powders (WP) or as emulsion concentrates (EC), are then applied to the surface of the covering soil in the form of an aqueous suspension or emulsion at a water application rate equating to 600 to 800 l/ha, with addition of 0.2% wetting agent. After the treatment, the pots are placed in a greenhouse and kept under good growth conditions for the trial plants. The damage to the test plants is scored visually after a test period of 3 weeks by comparison with untreated controls (herbicidal activity in percent (%): 100% activity=the plants have died, 0% activity=like control plants). […] The tables below illustrate, in an exemplary manner, the […] herbicidal action of the compounds according to the invention, the herbicidal activity being stated in percent. [table] In the experiments that follow, herbicidal action of numerous inventive compounds and the known compounds that are structurally closest from D1 (WO 2012/028579 A1) and D2 (WO 2018/202535 A1) were compared under the above-specified conditions by the pre-emergence and post-emergence method. The example numbers given in the tables relate to the compounds disclosed in the respective documents. In addition to the compounds disclosed in D1 and D2, the following compounds V-1 to V-14 that are encompassed by D1 or D2 but are not compounds specified therein were used in the comparative experiments: • V-1: 2-(methylsulfanyl)-3-(methylsulfinyl)-N-(1-methyl-1H-tetrazol-5-yl)-4-(trifluoromethyl)benzamide • V-2: 2-(methylsulfanyl)-3-(methylsulfonyl)-N-(1-methyl-1H-tetrazol-5-yl)-4-(trifluoromethyl)benzamide • V-3: 2,3-bis(ethylsulfanyl)-N-(1-methyl-1H-tetrazol-5-yl)-4-(trifluoromethyl)benzamide • V-4: 2-chloro-3-(ethylsulfanyl)-N-(1-methyl-1H-tetrazol-5-yl)-4-(trifluoromethyl)benzamide • V-5: 2-chloro-4-iodo-3-(methylsulfanyl)-N-(1-methyl-1H-tetrazol-5-yl)benzamide • V-6: 2-chloro-4-iodo-3-(methylsulfinyl)-N-(1-methyl-1H-tetrazol-5-yl)benzamide • V-7: 2-chloro-4-iodo-3-(methylsulfonyl)-N-(1-methyl-1H-tetrazol-5-yl)benzamide • V-8: 2-bromo-3-(methylsulfanyl)-N-(1-methyl-1H-tetrazol-5-yl)-4-(trifluoromethyl)benzamide • V-9: 2-bromo-3-(methylsulfinyl)-N-(1-methyl-1H-tetrazol-5-yl)-4-(trifluoromethyl)benzamide • V-10: 2-bromo-3-(methylsulfonyl)-N-(1-methyl-1H-tetrazol-5-yl)-4-(trifluoromethyl)benzamide • V-11: 2-bromo-3-(ethylsulfanyl)-N-(1-methyl-1H-tetrazol-5-yl)-4-(trifluoromethyl)benzamide • V-12: 2-bromo-3-(ethylsulfinyl)-N-(1-methyl-1H-tetrazol-5-yl)-4-(trifluoromethyl)benzamide • V-13: 2-bromo-3-(ethylsulfonyl)-N-(1-methyl-1-1H-tetrazol-5-yl)-4-(trifluoromethyl)benzamide • V-14: 2-cyclopropyl-3-(ethylsulfanyl)-N-(1-methyl-1H-tetrazol-5-yl)-4-(trifluoromethyl)benzamide Herbicidal Pre-Emergence Action: […]

Stellaria media = assay: Pre-emergence herbicidal action, STEME; parameters: key to Herbicidal action against STEME: % activity: 100 = plants have died, 0 = like control plants; conditions: for Herbicidal action against STEME: comparative experiment; for herbicidal activity STEME: dosage 320 g/ha, scored visually after 3 weeks vs untreated controls (100% = plants have died)
Summary of the method: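 Herbicidal activity is expressed in percent, scored by eye after a 3-week greenhouse period, with 0% matching untreated plants and 100% meaning death. Compounds, as wettable powders or emulsion concentrates, are applied pre-emergence to the covering soil.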

Abutilon theophrasti = assay: Post-emergence herbicidal action, ABUTH; parameters: key: % herbicidal action vs untreated; 100 = plants died, 0 = like control; conditions: for Herbicidal action against ABUTH: comparative experiment
Summary of the method: (§1)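 Greenhouse weeds grown in sandy loam were sprayed at the one-leaf stage, 2–3 weeks after sowing, with WP or EC formulations at 600–800 l/ha water plus 0.2% wetting agent. Damage scored visually about 3 weeks later, in percent against untreated controls (100% = plants dead).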

Cyperus esculentus = assay: Post-emergence herbicidal action, CYPES; parameters: key: % herbicidal action vs untreated; 100 = plants died, 0 = like control
Summary of the method: as §1

Polygonum convolvulus = assay: Post-emergence herbicidal action, POLCO; conditions: for Herbicidal action against POLCO: comparative experiment
Summary of the method: as §1

Viola tricolor = assay: Post-emergence herbicidal action, VIOTR; parameters: key: % herbicidal action vs untreated; 100 = plants died, 0 = like control; conditions: for Herbicidal action against VIOTR: comparative experiment
Summary of the method: as §1

[1] = post-emergence, 20 g of a.i./ha

| Structure (SMILES) | herbicidal activity LOLMU (Lolium multiflorum) | herbicidal activity STEME (Stellaria media) | herbicidal action ABUTH (Abutilon theophrasti; post-emergence, dosage 80 g/ha) | herbicidal action CYPES (Cyperus esculentus; post-emergence, dosage 80 g/ha) | herbicidal action POLCO (Polygonum convolvulus; post-emergence, dosage 80 g/ha) | herbicidal action VIOTR (Viola tricolor; post-emergence, dosage 80 g/ha) | herbicidal action ABUTH (Abutilon theophrasti; Dosage 80 g/ha) | herbicidal action VIOTR (Viola tricolor; Dosage 80 g/ha) | herbicidal action POLCO (Polygonum convolvulus; Dosage 80 g/ha) | also measured |
| --- | --- | --- | --- | --- | --- | --- | --- | --- | --- | --- |
| CC[S+]([O-])Cc1c(C(F)(F)F)ccc(C(=O)Nc2nnnn2C)c1Br (racemic) [Example 1-384] | 100% | 100% | 100% | 90% | 90% | 100% |  |  |  | Herbicidal action against STEME (Stellaria media; 80 g of a.i./ha): 100; Herbicidal action against ABUTH (Abutilon theophrasti; [1]): 90; Herbicidal action against VIOTR (Viola tricolor; [1]): 100 |
| CSCc1c(C(F)(F)F)ccc(C(=O)Nc2nnnn2C)c1C [Example 1-83] | 100% | 100% | 90% | 90% | 90% | 90% |  |  |  |  |
| CCSCc1c(C(F)(F)F)ccc(C(=O)Nc2nnnn2C)c1SCC [Example 1-182] | 90% | 90% |  |  |  |  | 90 | 100 |  | Herbicidal action against STEME (Stellaria media; 20 g of a.i./ha): 90; Herbicidal action against ABUTH (Abutilon theophrasti; post-emergence, 5 g of a.i./ha): 70; Herbicidal action against VIOTR (Viola tricolor; post-emergence, 5 g of a.i./ha): 90 |
| CCSCc1c(C(F)(F)F)ccc(C(=O)Nc2nnnn2C)c1Cl [Example 1-299] | 100% | 100% | 100% | 80% | 80% | 100% |  |  |  | Herbicidal action against POLCO (Polygonum convolvulus; post-emergence, 5 g of a.i./ha): 60 |
| Cn1nnnc1NC(=O)c1ccc(C(F)F)c(CS(C)(=O)=O)c1Cl [Example 1-322] | 100% | 100% | 100% |  | 90% | 100% |  |  |  |  |
| CCSCc1c(C(F)F)ccc(C(=O)Nc2nnnn2C)c1Cl [Example 1-323] | 100% | 100% | 100% | 80% | 90% | 100% |  |  |  |  |
| CCS(=O)(=O)Cc1c(C(F)F)ccc(C(=O)Nc2nnnn2C)c1Cl [Example 1-325] | 100% | 100% |  |  |  |  | 100 | 100 | 90 | herbicidal action CYPES (Cyperus esculentus; Dosage 80 g/ha): 80 |
| CCSCc1c(C(F)(F)F)ccc(C(=O)Nc2nnnn2C)c1Br [Example 1-383] | 100% | 100% | 100% |  | 90% | 100% |  |  |  | Herbicidal action against ABUTH (Abutilon theophrasti; [1]): 90; Herbicidal action against VIOTR (Viola tricolor; [1]): 100 |
| CCS(=O)(=O)Cc1c(C(F)(F)F)ccc(C(=O)Nc2nnnn2C)c1Br [Example 1-385] | 100% | 90% | 100% | 80% | 90% | 100% |  |  |  | Herbicidal action against CYPES (Cyperus esculentus; comparative experiment, post-emergence, 20 g of a.i./ha): 60; Herbicidal action against POLCO (Polygonum convolvulus; [1]): 70; Herbicidal action against VIOTR (Viola tricolor; [1]): 100 |
| CCn1nnnc1NC(=O)c1ccc(C(F)(F)F)c(CSC)c1Cl [Example 2-296] | 100% | 100% | 100% | 80% | 100% | 100% |  |  |  |  |
| CCn1nnnc1NC(=O)c1ccc(C(F)(F)F)c(C[S+](C)[O-])c1Cl (stereo not shown) [Example 2-297] | 90% | 100% | 80% |  | 90% | 100% |  |  |  |  |
| CCn1nnnc1NC(=O)c1ccc(C(F)(F)F)c(CS(C)(=O)=O)c1Cl [Example 2-298] | 90% | 90% |  |  |  |  | 80 | 100 | 90 |  |
| CCSCc1c(C(F)(F)F)ccc(C(=O)Nc2nnnn2CC)c1Cl [Example 2-299] | 100% | 100% | 100% | 90% | 90% | 100% |  |  |  |  |
| CCn1nnnc1NC(=O)c1ccc(C(F)F)c(CSC)c1Cl [Example 2-320] | 90% | 100% |  |  |  |  | 100 | 100 | 100 | herbicidal action CYPES (Cyperus esculentus; Dosage 80 g/ha): 80 |
| CCn1nnnc1NC(=O)c1ccc(C(F)F)c(CS(C)(=O)=O)c1Cl [Example 2-322] | 100% | 100% | 100% |  | 100% | 100% |  |  |  |  |
| CCSCc1c(C(F)F)ccc(C(=O)Nc2nnnn2CC)c1Cl [Example 2-323] | 100% | 100% | 100% | 80% | 100% | 100% |  |  |  |  |
| CCn1nnnc1NC(=O)c1ccc(C(F)F)c(CS(=O)(=O)CC)c1Cl [Example 2-325] | 100% | 100% |  |  |  |  | 100 | 100 | 90 |  |
| CCn1nnnc1NC(=O)c1ccc(C(F)(F)F)c(C[S+]([O-])CC)c1Br (stereo not shown) [Example 2-384] | 100% | 100% | 100% |  | 80% | 100% |  |  |  |  |
| CCn1nnnc1NC(=O)c1ccc(C(F)(F)F)c(CS(=O)(=O)CC)c1Br [Example 2-385] | 100% | 100% | 100% | 90% | 90% | 100% |  |  |  |  |
| CCCn1nnnc1NC(=O)c1ccc(C(F)(F)F)c(CS(C)(=O)=O)c1Cl [Example 3-298] | 90% | 90% |  |  |  |  | 80 | 100 | 90 |  |
| CCCn1nnnc1NC(=O)c1ccc(C(F)F)c(CS(C)(=O)=O)c1Cl [Example 3-322] | 80% | 100% |  |  |  |  | 100 |  | 80 |  |
| CCCn1nnnc1NC(=O)c1ccc(C(F)F)c(CSCC)c1Cl [Example 3-323] | 100% | 100% |  |  |  |  | 100 | 90 | 80 |  |
| CCCn1nnnc1NC(=O)c1ccc(C(F)(F)F)c(C[S+]([O-])CC)c1Br (stereo not shown) [Example 3-384] | 90% | 90% |  |  |  |  | 100 | 100 | 90 |  |

— patent US12492173B2, “Herbicidal substituted N-tetrazolyl aryl carboxamides” (Bayer Aktiengesellschaft, priority 2019, dated 2025)
